One data set has as its system NQO1. In words: NQO1 enzyme activation assay as a readout of NRF2 activation in THP-1 cells. As to conditions: Homo sapiens; for Emax: THP-1, percentage activation at top concentration, normalised to DMF (100%) and vehicle controls; for EC50: differentiated THP-1 cells, LPS, 48 hr. It is filed as cell-based. Here is the method: NQO1 Enzyme Activation Assay as a Readout of NRF2 Activation in THP-1 Cellular Background
NAD(P)H dehydrogenase [quinone] […] Induction of this gene is concomitant with the inhibition of proinflammatory cytokine transcription and suppression of the inflammatory response (Kobayashi E. H. et al., 2016). The NQO1 enzyme activation activities of compounds of formula (IW-1) were determined using a cellular based NQO1 activation assay (Abcam). The NQO1 activation assay was run in differentiated THP-1 cells (a human monocyte-like cell line) as described below. All reagents described are from Sigma-Aldrich unless specified otherwise. Compounds were prepared as 10 mM DMSO stocks.
THP-1 cells were expanded as a suspension up to 80% confluence in appropriate growth medium. Cells were harvested, suspended, treated with phorbol 12-myristate 13-acetate (PMA) and plated according to the cell density required for each plate format over a 72 hr period (37° C./5% CO2).
Following 72 hrs of THP-1 cell incubation, cellular medium was removed and replaced with fresh media. Working concentrations of compounds were prepared and pre-incubated for 30 minutes (37° C./5% CO2). Compound treatment was then applied to the PMA treated THP-1 cell plate followed by LPS treatment. A ‘low’ (DMSO vehicle only) control and ‘high’ (designated concentration of dimethyl fumarate) was applied to each plate at the point of compound treatment. Cells were subsequently incubated for a 48 hr period (37° C./5% C02) after which all NQO1 assay reagents were prepared according to the manufacturer's instructions. NQO1 extraction buffer was applied to PBS washed THP-1 cells and incubated on ice for 15 minutes to prepare THP-1 lysates for the NQO1 activity assay. THP-1 lysates were diluted 1:5 with PBS and treated with a 1:1 volume of kit prepared NQO1 Reaction Buffer. Absorbance was subsequently measured kinetically on an appropriate reader over a 6 minute period.
For activation determination, the fold change in response per well was determined by first calculating the average NQO1 activation data for the vehicle control and then dividing the individual well response by the averaged NQO1 response for the vehicle control as shown below: Fold change=(Sample value)/MeanMin Where ‘Min’=vehicle control only
The relative 50% activation concentration (EC50) was determined from the resulting fold change response curve. The maximum efficacy (Emax) was reported as the percentage activation calculated at the top concentration of compound used in the titration applied. If a full curve was unattainable preventing a correct curve fit, the Emax value was extrapolated using existing curve data. All percentage activation data were normalised to the DMF and vehicle controls, meaning the Emax represents the percentage […] achieved by a compound at a particular concentration relative to that achieved by DMF (set as the ‘High’ control and therefore representative of 100% activation).

Data set [1] relates to IL-6 cytokine output from THP-1s. In words: THP-1 AlphaLISA IL-6 cytokine assay. It is filed as cell-based, human. As to conditions: for IC50: Homo sapiens. The method in brief:
(§1)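 Percent inhibition, normalised to plus- and minus-LPS controls, was plotted against concentration to derive IC50. Differentiated THP-1 cells received compound 30 min ahead of LPS (24 h) and a 1 h nigericin pulse; AlphaLISA quantified supernatant cytokine.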
In general terms: Bead proximity is the source of the signal in Alpha formats.

Data set [2] deals with IL-1β cytokine output from THP-1s. In words: THP-1 AlphaLISA IL-1β cytokine assay. It is filed as cell-based, human. The following applies: for IC50: Homo sapiens, read-out: IL-1β (IC50). The method in brief:
as §1

Data set [3] is described as follows: Mouse pharmacokinetic study, oral administration. It is filed as in vivo. The following applies: mouse plasma, Example 112 dosed orally at 100 mg/kg (Intermediate 8 = metabolite). Here is the method: Pharmacokinetic studies were carried out in 6-8-week-old male C57BL/6 mice having free access to food and water. Intravenous dosing was conducted at 10 mg/kg (5 mL/kg; vehicle: 10% DMSO-90% (25% HP-13-CD in water)) via tail vein injection, with sampling at 3 min, 8 min, 15 min, 30 min, 1, 2, 4, 6 and 8 hours, i.e., 9 time points in total (N=3/time point), using semi-serial bleeding for plasma. Oral compound administration, via gavage, was carried out at 100 mg/kg (10 mL/kg; vehicle: 5% DMSO-95% (0.5% HPMC+0.1% Tween 80 in water)), with sampling at 5 min, 15 min, 30 min, 1, 2, 4, 6, 8 and 24 hours, i.e., 9 time points in total (N=3/time point), using semi-serial bleeding for plasma.
For both intravenous and oral routes, the mice were restrained manually at the designated time points, with ca. 110 μL of blood being taken into K2EDTA tubes via the facial vein. Blood samples were put on ice and centrifuged to obtain plasma samples from which the concentration at each time point was measured by LC-MS/MS.

A further data set relates to NRF2. The data set is described as follows: NRF2 +/-GSH activation assay (DiscoverX PathHunter NRF2 translocation kit, U2OS cells). It is filed as cell-based. As to conditions: Homo sapiens, U2OS, Table 10, assay of Biological Example 5 (NRF2). The method in brief:
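Percent activation, normalised to dimethyl fumarate (high) and vehicle (low) controls, was fitted for EC50 after 6 hours treatment of U2OS PathHunter cells. In the +GSH arm compounds were first pre-incubated 30 minutes in 6 mM working GSH; NRF2 translocation read by chemiluminescent complementation.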

Setting [4] is: PMA-differentiated THP-1 cells, LPS 24 hr then Nigericin 1 hour.
Setting [5] is: THP-1, PMA-differentiated THP-1 cells, LPS 24 hr then Nigericin 1 hour.
Where [6] appears, read: Table 10, assay of Biological Example 1 (THP-1).

The structures appear in SMILES notation. Like-named read-outs stand apart in the source and are kept apart here.

In general, Emax refers to the maximal effect, on the per cent scale that the assay sets. What is called EC50 is the midpoint of the concentration-response curve. As for `C=C(CC(=O)OCCCCCCCC)C(=O)OC` [Example 42, 1-methyl 4-octyl 2-methylenesuccinate], in the data set on NQO1, the Emax was found to be 66% and the response was half-maximal at 24.3 µM (EC50).

For orientation: IC50 means the midpoint of a concentration-inhibition curve. `C=C(CC(=O)OCCCC)C(=O)OCCS(=O)(=O)c1ccc(C)cc1` [Example 39, 4-butyl 1-(2-tosylethyl) 2-methylenesuccinate]: the IC50 in data set [1] (setting [4]) worked out at 7.3 µM. In the data set on NQO1, this compound had an Emax of 59% and an EC50 of 1.3 µM. For the same compound, the IC50 in data set [2] (setting [5]) is 5.1 µM.

On to `C=C(CC(=O)OCCCCCCCC)C(=O)OCCS(=O)(=O)N(C)C` [Example 16, 1-(2-(N,N-dimethylsulfamoyl)ethyl) 4-octyl 2-methylenesuccinate], for which the IC50 in data set [1] (setting [4]) is 1.1 µM. Further, in the data set with NQO1, the Emax stood at 108% and the midpoint of the response, the EC50, lay at 19.8 µM. For the same compound, the IC50 in data set [2] (setting [5]) was found to be 1.7 µM.

As to `C=C(CC(=O)OC)C(=O)OCCS(C)(=O)=O` [Example 12, 4-methyl 1-(2-(methylsulfonyl)ethyl) 2-methylenesuccinate], the IC50 in data set [1] (setting [4]) came to 11.3 µM; in data set [2] (setting [5]), 28.2 µM. Moreover, the Emax with NQO1 is 88%. The midpoint of the response in the data set on NQO1, the EC50, lay at 22.7 µM.

For `C=C(CC(=O)OCCCCCCCC)C(=O)OC1CCC1` [Example 45, 1-cyclobutyl 4-octyl 2-methylenesuccinate], in the data set with NQO1, the Emax turned out to be 72% and the EC50 was 1.6 µM.

As to `C=C(CC(=O)OC1CCC1)C(=O)OC1CCC1` [Example 43, dicyclobutyl 2-methylenesuccinate], in the data set with NQO1, the Emax is 150% and the EC50 was 170 µM.

As for `C=C(CC(=O)OCCCC)C(=O)OCCS(C)(=O)=O` [Example 7, 4-butyl 1-(2-(methylsulfonyl)ethyl) 2-methylenesuccinate], the IC50 amounted to 12 µM in data set [1] (setting [4]) and 16.7 µM in data set [2] (setting [5]). The same compound came in with an Emax with NQO1 of 78%. This compound also had an EC50 in the data set on NQO1 of 7.3 µM.

With `C=C(CC(=O)OCCCCCCCC)C(=O)OCCCS(C)(=O)=O` [Example 18, 1-(3-(methylsulfonyl)propyl) 4-octyl 2-methylenesuccinate], in the data set with NQO1, the Emax turned out to be 67% and a half-maximal effect (EC50) was put at 5.4 µM.

Regarding `C=C(CC(=O)OC1CCCCCCC1)C(=O)OC` [Example 41, 4-cyclooctyl 1-methyl 2-methylenesuccinate], in the data set on NQO1, the Emax was 129% and it took 38.1 µM to reach a half-maximal effect (EC50).

For `C=C(CC(=O)OCCCCCC)C(=O)OCCC#N` [Example 11, 1-(2-cyanoethyl) 4-hexyl 2-methylenesuccinate], in the data set with NQO1, the Emax came to 124% and a half-maximal response (EC50) required 10.4 µM. The IC50 in data set [2] (setting [5]) was 3.7 µM.

Turning to `C=C(CC(=O)OC)C(=O)OCCC#N` [Example 10, 1-(2-cyanoethyl) 4-methyl 2-methylenesuccinate], the values for the IC50 in data set [1] (setting [4]) and in data set [2] (setting [5]) were 7.6 µM and 27.9 µM, respectively. Moreover, the Emax in the data set on NQO1 came to 107%. Besides, the EC50 in the data set on NQO1 came to 15.2 µM.

In the case of `C=C(CC(=O)OCCCCCCCC)C(=O)OC(C)CS(C)(=O)=O` (stereo not shown) [Example 19, 1-(1-(methylsulfonyl)propan-2-yl) 4-octyl 2-methylenesuccinate], the IC50 in data set [1] (setting [4]) was 1.9 µM; in data set [2] (setting [5]), 3.6 µM. The same compound had a maximum response (Emax) in the data set with NQO1 of 44%. For the same compound, the EC50 with NQO1 was 51 µM.

As to `C=C(CC(=O)OCCCCCCCC)C(=O)OCCN(C)C` [Example 17, 1-(2-(dimethylamino)ethyl) 4-octyl 2-methylenesuccinate], the IC50 in data set [1] (setting [4]) was found to be 1.4 µM. In the data set with NQO1, the Emax came to 68% and the EC50 is 2.6 µM. For the same compound, in data set [2] (setting [5]), the IC50 came to 1.5 µM.

With `C=C(CC(=O)OCCCC)C(=O)OC1COC1` [Example 37, 4-butyl 1-(oxetan-3-yl) 2-methylenesuccinate], in the data set on NQO1, the Emax was determined as 105% and the EC50 turned out to be 21 µM.

Consider `C=C(CC(=O)OC1COC1)C(=O)OC1COC1` [Example 44, di(oxetan-3-yl) 2-methylenesuccinate], for which, in the data set with NQO1, the Emax stood at 217% and the EC50 amounted to 64.6 µM.

For the compound `C=C(CC(=O)OCCCC)C(=O)OCCC#N` [Example 8, 1-(2-cyanoethyl) 4-butyl 2-methylenesuccinate], in the data set with NQO1, the Emax amounted to 152% and the EC50 turned out to be 35.4 µM.

As to `C=C(CC(=O)OCCCCCCCC)C(=O)OCCOC(F)(F)F` [Example 13, 4-octyl 1-(2-(trifluoromethoxy)ethyl) 2-methylenesuccinate], in the data set on NQO1, the Emax came out at 45% and the EC50 worked out at 2.8 µM.

As for `C=C(CC(=O)O[C@H](C)CCCCCC)C(=O)O` [Intermediate 8, (R)-2-methylene-4-(octan-2-yloxy)-4-oxobutanoic acid], the concentration at 0.083 h in data set [3] (male, C57BL/6, po, time 0.083 h, read-out: Example 112 and Intermediate 8 concentrations following oral administration) was 18.5 µg/mL. The concentration at 0.25 h in data set [3] (male, C57BL/6, po, time 0.25 h, read-out: Example 112 and Intermediate 8 concentrations following oral administration) is 19.8 µg/mL. Further, in data set [3] (male, C57BL/6, po, time 0.5 h, read-out: Example 112 and Intermediate 8 concentrations following oral administration), the concentration at 0.5 h came to 12.8 µg/mL. Besides, in data set [3] (male, C57BL/6, po, time 1 h, read-out: Example 112 and Intermediate 8 concentrations following oral administration), the concentration at 1 h came to 4.71 µg/mL. Further, in data set [3] (male, C57BL/6, po, time 2 h, read-out: Example 112 and Intermediate 8 concentrations following oral administration), the concentration at 2 h amounted to 2.16 µg/mL. Also, in data set [3] (male, C57BL/6, po, time 4 h, read-out: Example 112 and Intermediate 8 concentrations following oral administration), the concentration at 4 h was found to be 0.719 µg/mL. For the same compound, the concentration at 6 h in data set [3] (male, C57BL/6, po, time 6 h, read-out: Example 112 and Intermediate 8 concentrations following oral administration) was determined as 0.614 µg/mL. Moreover, the concentration at 8 h in data set [3] (male, C57BL/6, po, time 8 h, read-out: Example 112 and Intermediate 8 concentrations following oral administration) is 0.132 µg/mL. The “Example 112 and Intermediate 8 concentrations following oral administration” value in data set [3] (time 24 h) is recorded as “BQL”. The IC50 in data set [1] (setting [6]) amounted to 23.7 µM; in data set [2] (THP-1, Table 10, assay of Biological Example 1 (THP-1)), 56.7 µM. The “IL-6 (IC50)” value in data set [1] (setting [6]) is reported as “improved cytokine-lowering potencies compared to dimethyl itaconate”. The EC50 in the data set with NRF2 (read-out: EC50) is 20.4 µM. In addition, the Emax in the data set on NRF2 (read-out: Emax) was 165%. For the same compound, the “IL-1β (IC50)” value in data set [2] (setting [6]) is reported as “improved cytokine-lowering potencies compared to dimethyl itaconate”.

These data come from patent US12390437B2, “Itaconic acid derivatives and uses thereof intreating an inflammatory disease or a disease associated with an undesirable immune response” (Sitryx Therapeutics Limited, priority 2019, dated 2025).
